Data published in PubChem BioAssay AID1259407 (Chemical Carcinogenesis Research Information System (CCRIS), 2018).
Calls of active or inactive are those of the source. The rule behind the calls is not given here.

System: CCRIS mutagenicity, Ames/micronucleus/aberration tests
Assay: CCRIS mutagenicity studies
[1] = Test System: AMES SALMONELLA TYPHIMURIUM, Strain/Indicator: TA98, Metabolic Activation: HAMSTER, LIVER, S-9, AROCLOR 1254 (10%), Method: PREINCUBATION
[2] = Test System: AMES SALMONELLA TYPHIMURIUM, Strain/Indicator: TA98, Metabolic Activation: NONE, Method: PREINCUBATION
[3] = Test System: AMES SALMONELLA TYPHIMURIUM, Strain/Indicator: TA98, Metabolic Activation: RAT, LIVER, S-9, AROCLOR 1254 (10%), Method: PREINCUBATION
[4] = Test System: AMES SALMONELLA TYPHIMURIUM, Strain/Indicator: TA100, Metabolic Activation: HAMSTER, LIVER, S-9, AROCLOR 1254 (10%), Method: PREINCUBATION
[5] = Test System: AMES SALMONELLA TYPHIMURIUM, Strain/Indicator: TA100, Metabolic Activation: NONE, Method: PREINCUBATION
[6] = Test System: AMES SALMONELLA TYPHIMURIUM, Strain/Indicator: TA100, Metabolic Activation: RAT, LIVER, S-9, AROCLOR 1254 (10%), Method: PREINCUBATION
[7] = Test System: AMES SALMONELLA TYPHIMURIUM, Strain/Indicator: TA1535, Metabolic Activation: HAMSTER, LIVER, S-9, AROCLOR 1254 (10%), Method: PREINCUBATION
[8] = Test System: AMES SALMONELLA TYPHIMURIUM, Strain/Indicator: TA1535, Metabolic Activation: NONE, Method: PREINCUBATION
[9] = Test System: AMES SALMONELLA TYPHIMURIUM, Strain/Indicator: TA1535, Metabolic Activation: RAT, LIVER, S-9, AROCLOR 1254 (10%), Method: PREINCUBATION
[10] = Test System: AMES SALMONELLA TYPHIMURIUM, Strain/Indicator: TA98, Metabolic Activation: GUINEA PIG, LIVER, S-9, 3-METHYLCHOLANTHRENE, Method: STANDARD PLATE
[11] = Test System: AMES SALMONELLA TYPHIMURIUM, Strain/Indicator: TA100, Metabolic Activation: GUINEA PIG, LIVER, S-9, 3-METHYLCHOLANTHRENE, Method: STANDARD PLATE
[12] = Test System: CHINESE HAMSTER V-79, Strain/Indicator: V-79/6-THIOGUANINE, Metabolic Activation: GUINEA PIG, LIVER, S-9, 3-METHYLCHOLANTHRENE

For `CC(=O)O`, the mutagenic call (Test System: AMES SALMONELLA TYPHIMURIUM, Strain/Indicator: TA97, Metabolic Activation: HAMSTER, LIVER, S-9, AROCLOR 1254 (10%), Method: PREINCUBATION) was “inactive; negative”, the mutagenic call (Test System: AMES SALMONELLA TYPHIMURIUM, Strain/Indicator: TA97, Metabolic Activation: HAMSTER, LIVER, S-9, AROCLOR 1254 (30%), Method: PREINCUBATION) was “inactive; negative” and the mutagenic call (Test System: AMES SALMONELLA TYPHIMURIUM, Strain/Indicator: TA97, Metabolic Activation: NONE, Method: PREINCUBATION) was “inactive; negative”. The mutagenic call (Test System: AMES SALMONELLA TYPHIMURIUM, Strain/Indicator: TA97, Metabolic Activation: RAT, LIVER, S-9, AROCLOR 1254 (10%), Method: PREINCUBATION) was “inactive; negative”, the mutagenic call (Test System: AMES SALMONELLA TYPHIMURIUM, Strain/Indicator: TA97, Metabolic Activation: RAT, LIVER, S-9, AROCLOR 1254 (30%), Method: PREINCUBATION) was “inactive; negative” and the mutagenic call (Test System: AMES SALMONELLA TYPHIMURIUM, Strain/Indicator: TA97, Metabolic Activation: RAT, LIVER, S-9, AROCLOR 1254, Method: PREINCUBATION) was “inactive; negative”. The mutagenic call [1] was “inactive; negative”, the mutagenic call (Test System: AMES SALMONELLA TYPHIMURIUM, Strain/Indicator: TA98, Metabolic Activation: HAMSTER, LIVER, S-9, AROCLOR 1254 (30%), Method: PREINCUBATION) was “inactive; negative” and the mutagenic call [2] was “inactive; negative”. The mutagenic call [3] was “inactive; negative”, the mutagenic call (Test System: AMES SALMONELLA TYPHIMURIUM, Strain/Indicator: TA98, Metabolic Activation: RAT, LIVER, S-9, AROCLOR 1254 (30%), Method: PREINCUBATION) was “inactive; negative” and the mutagenic call [4] was “inactive; negative”. The mutagenic call (Test System: AMES SALMONELLA TYPHIMURIUM, Strain/Indicator: TA100, Metabolic Activation: HAMSTER, LIVER, S-9, AROCLOR 1254 (30%), Method: PREINCUBATION) was “inactive; negative”, the mutagenic call [5] was “inactive; negative” and the mutagenic call [6] was “inactive; negative”. The mutagenic call (Test System: AMES SALMONELLA TYPHIMURIUM, Strain/Indicator: TA100, Metabolic Activation: RAT, LIVER, S-9, AROCLOR 1254 (30%), Method: PREINCUBATION) was “inactive; negative”, the mutagenic call (Test System: AMES SALMONELLA TYPHIMURIUM, Strain/Indicator: TA102, Metabolic Activation: NONE, Method: PREINCUBATION) was “inactive; negative” and the mutagenic call (Test System: AMES SALMONELLA TYPHIMURIUM, Strain/Indicator: TA102, Metabolic Activation: RAT, LIVER, S-9, AROCLOR 1254, Method: PREINCUBATION) was “inactive; negative”. The mutagenic call [7] was “inactive; negative”, the mutagenic call (Test System: AMES SALMONELLA TYPHIMURIUM, Strain/Indicator: TA1535, Metabolic Activation: HAMSTER, LIVER, S-9, AROCLOR 1254 (30%), Method: PREINCUBATION) was “inactive; negative” and the mutagenic call [8] was “inactive; negative”. For the same molecule, the mutagenic call [9] was “inactive; negative” and the mutagenic call (Test System: AMES SALMONELLA TYPHIMURIUM, Strain/Indicator: TA1535, Metabolic Activation: RAT, LIVER, S-9, AROCLOR 1254 (30%), Method: PREINCUBATION) was “inactive; negative”.
In the case of `Cc1cccc(NO)c1`, the mutagenic call (Test System: AMES SALMONELLA TYPHIMURIUM, Strain/Indicator: TA98, Metabolic Activation: RAT, LIVER, S-9, AROCLOR 1254, Method: PREINCUBATION) is reported as “inactive; negative” and the mutagenic call (Test System: AMES SALMONELLA TYPHIMURIUM, Strain/Indicator: TA100, Metabolic Activation: RAT, LIVER, S-9, PCB, Method: PREINCUBATION) is reported as “active; positive”.
With `CC(C)N(CC(O)COc1ccc(CC(N)=O)cc1)N=O` (stereo not given) the mutagenic call (Test System: UDS HUMAN HEPATOCYTES, Strain/Indicator: THY INCORP, Metabolic Activation: NONE, Method: AUTORADIOGRAPHY) was “active; positive” and the mutagenic call (Test System: UDS RAT HEPATOCYTES, Strain/Indicator: THY INCORP, Metabolic Activation: NONE, Method: AUTORADIOGRAPHY) was “active; positive”.
In the case of `Fc1cc(F)c2ncccc2c1F`, the mutagenic call (Test System: AMES SALMONELLA TYPHIMURIUM, Strain/Indicator: TA100, Metabolic Activation: RAT LIVER S-9, PHENOBARBITAL AND 5,6-BENZOFLAVONE, Method: PREINCUBATION) is reported as “active; positive”.
`CN1CCN(c2ccc3nc(-c4ccc5nc(-c6ccc(N(CCCl)CCCl)cc6)[nH]c5c4)[nH]c3c2)CC1` was tested, and the mutagenic call (Test System: AMES SALMONELLA TYPHIMURIUM, Strain/Indicator: TA98, Metabolic Activation: NONE, Method: STANDARD PLATE) was “inactive; negative”, the mutagenic call (Test System: AMES SALMONELLA TYPHIMURIUM, Strain/Indicator: TA100, Metabolic Activation: NONE, Method: STANDARD PLATE) was “inactive; negative” and the mutagenic call (Test System: AMES SALMONELLA TYPHIMURIUM, Strain/Indicator: TA102, Metabolic Activation: NONE, Method: STANDARD PLATE) was “inactive; negative”.
With `c1cc2ccc3cc4c(c5ccc(c1)c2c35)[C@H]1O[C@H]1CC4` the mutagenic call (Test System: CHINESE HAMSTER V-79, Strain/Indicator: V-79/8-AZAGUANINE, Metabolic Activation: NONE, Method: STANDARD PLATE) was “active; positive”.
For `COc1cc2nc3cc(N)c(OC)cc3nc2cc1N`, the mutagenic call (Test System: AMES SALMONELLA TYPHIMURIUM, Strain/Indicator: TA98, Metabolic Activation: S-9, Method: SUSPENSION/PLATE) was “active; positive”.
`O[C@H]1C=Cc2c(ccc3nc4ccc5ccccc5c4cc23)[C@@H]1O` was tested, and the mutagenic call [10] was “inactive; negative”, the mutagenic call [11] was “active; positive” and the mutagenic call [12] was “active; positive”.
`CN(C)CCN(Cc1ccsc1)c1ccccn1` was tested, and the mutagenic call [1] was “inactive; negative”, the mutagenic call [2] was “inactive; negative” and the mutagenic call [3] was “inactive; negative”. For the same molecule, the mutagenic call [4] was “inactive; negative”, the mutagenic call [5] was “inactive; negative” and the mutagenic call [6] was “inactive; negative”. The mutagenic call [7] was “inactive; negative”, the mutagenic call [8] was “inactive; negative” and the mutagenic call [9] was “inactive; negative”. The mutagenic call (Test System: AMES SALMONELLA TYPHIMURIUM, Strain/Indicator: TA1537, Metabolic Activation: HAMSTER, LIVER, S-9, AROCLOR 1254 (10%), Method: PREINCUBATION) was “inactive; negative”, the mutagenic call (Test System: AMES SALMONELLA TYPHIMURIUM, Strain/Indicator: TA1537, Metabolic Activation: NONE, Method: PREINCUBATION) was “inactive; negative” and the mutagenic call (Test System: AMES SALMONELLA TYPHIMURIUM, Strain/Indicator: TA1537, Metabolic Activation: RAT, LIVER, S-9, AROCLOR 1254 (10%), Method: PREINCUBATION) was “inactive; negative”.
With `c1ccc2c(c1)ccc1nc3ccc4ccccc4c3cc12` the mutagenic call [10] was “inactive; negative”, the mutagenic call [11] was “active; positive” and the mutagenic call (Test System: AMES SALMONELLA TYPHIMURIUM, Strain/Indicator: TA100, Metabolic Activation: RAT, LIVER, S-9, AROCLOR 1254, Method: STANDARD PLATE) was “active; positive”. The mutagenic call (Test System: AMES SALMONELLA TYPHIMURIUM, Strain/Indicator: TA1537, Metabolic Activation: RAT, LIVER, S-9, AROCLOR 1254, Method: STANDARD PLATE) was “active; positive”, the mutagenic call (Test System: AMES SALMONELLA TYPHIMURIUM, Strain/Indicator: TA1537, Metabolic Activation: RAT, LIVER, S-9, PHENOBARBITAL, Method: STANDARD PLATE) was “active; positive” and the mutagenic call (Test System: AMES SALMONELLA TYPHIMURIUM, Strain/Indicator: TA1538, Metabolic Activation: RAT, LIVER, S-9, PHENOBARBITAL, Method: STANDARD PLATE) was “active; positive”. The mutagenic call [12] was “active; positive”.
